Data reported in ChEMBL document CHEMBL5154737, “Semisynthesis and biological evaluation of (+)-sclerotiorin derivatives as antitumor agents for the treatment of hepatocellular carcinoma” (Eur J Med Chem, 2022).
Active and inactive are the calls of the source. No cut-off for these calls is given here.

Assays:
[1] = Cytotoxicity against human Biu-87 cells assessed as reduction in cell viability incubated for 72 hrs by MTT assay; format: functional, cell-based; settings: BIU87, 72 h
[2] = system: Bel-7402; experiment: Inhibition of cell proliferation in human Bel-7402 cells assessed as inhibition of colony formation incubated for 10 days by crystal violet based plate clone formation assay; format: functional; settings: dose <= 2.0 µM, time 10.0 day, DDE = dose-dependent effect
[3] = Cytotoxicity against human HepG2 cells assessed as reduction in cell viability incubated for 72 hrs by MTT assay; format: toxicity, cell-based
[4] = system: Bel-7402; experiment: Induction of apoptosis in human Bel-7402 cells assessed as dead cells at 1.25 uM incubated for 24 hrs by Annexin V and dead cell assay kit (reference value: 0.80 %); format: functional
[5] = Chronic toxicity in ICR mouse assessed as effect on spleen morphology at 100 mg/kg, ip qd measured after 26 days by H and E staining method; format: organism-based; settings: in vivo, 624 h, time 26 day
[6] = Sub-chronic toxicity in ICR mouse assessed as change in amount of food intake at 100 mg/kg/day, ip for 26 days; format: organism-based; settings: in vivo, 624 h, time 26 day
[7] = system: Bel-7402; experiment: Induction of apoptosis in human Bel-7402 cells assessed as late apoptotic cells at 1.25 uM incubated for 24 hrs by Annexin V and dead cell assay kit (reference value: 4.45 %); format: functional
[8] = Toxicity in ICR mouse assessed as change in hemoglobin level at 100 mg/kg, ip qd (reference value: 124 g/L); format: organism-based; settings: in vivo
[9] = system: Bel-7402; experiment: Induction of apoptosis in human Bel-7402 cells assessed as early apoptotic cells at 2.5 uM incubated for 24 hrs by Annexin V and dead cell assay kit (reference value: 3.75 %); format: functional
[10] = system: Bel-7402; experiment: Induction of apoptosis in human Bel-7402 cells assessed as late apoptotic cells at 2.5 uM incubated for 24 hrs by Annexin V and Dead cell kit assay (reference value: 3.85 %); format: functional
[11] = system: Bel-7402; experiment: Cytotoxicity against human Bel-7402 cells assessed as inhibition rate at 5 uM by MTT assay; format: functional, cell-based; settings: time 72.0 hrs, TDE = time-dependent effect
[12] = AUC (0 to t) in Sprague-Dawley rat at 20 mg/kg, ip measured for 0.03 to 24 hrs by UPLC-MS analysis; format: ADME, organism-based; parameters: time lower 0.03 hrs, dose 20 mg/kg, time upper 24 hrs, route ip; settings: in vivo
[13] = Drug uptake in tumor of mouse bearing tumor measured after 24 hr by ICG dye based fluorescence imaging; format: ADME, tissue-based, Neoplasm; settings: in vivo
[14] = system: Bel-7402; experiment: Induction of apoptosis in human Bel-7402 cells assessed as increase in cleaved caspase-3 upto 2.5 uM incubated for 24 hrs by Western blot analysis; format: functional, cell-based
[15] = Toxicity in ICR mouse assessed as change in mean platelet volume at 100 mg/kg, ip qd (reference value: 5.6 fL); format: organism-based; settings: in vivo
[16] = Chronic toxicity in ICR mouse assessed as effect on liver morphology at 100 mg/kg, ip qd measured after 26 days by H and E staining method; format: organism-based; settings: in vivo, 624 h, time 26 day
[17] = Toxicity in BALB/c nude mouse xenografted with human Bel-7402 cells assessed as change in body weight at 10 to 20 mg/kg, ip bid measured every 2 days for 14 days; format: organism-based; settings: in vivo, 336 h, dose 10-20 mg/kg, time 14 day
[18] = Biodistribution in whole body of mouse bearing tumor measured after 1 hr by ICG dye based fluorescence imaging; format: ADME, organism-based; settings: in vivo
[19] = Toxicity in BALB/c nude mouse xenografted with Bel-7402 cells assessed as change in body weight at 20 mg/kg, ip qd measured every 2 days for 14 days; format: organism-based; settings: in vivo, 336 h, time 14 day
[20] = system: Bel-7402; experiment: Induction of apoptosis in human Bel-7402 cells assessed as necrotic cells at 2.5 uM incubated for 24 hrs in presence of U0126 by Annexin V and Dead cell kit assay (reference value: 1.6 %); format: functional
[21] = system: Bel-7402; experiment: Antitumor activity against human Bel-7402 cells xenografted in BALB/c nude mouse assessed as tumor growth inhibition at 20 mg/kg, ip qd measured every 2 days for 14 days relative to control; format: functional; settings: Bel-7402, 336 h, time 14 day, read-out: TGI
[22] = system: Bel-7402; experiment: Induction of apoptosis in human Bel-7402 cells assessed as early apoptotic cells at 1.25 uM incubated for 24 hrs by Annexin V and dead cell assay kit (reference value: 3.75 %); format: functional
[23] = system: Bel-7402; experiment: Induction of apoptosis in human Bel-7402 cells assessed as late apoptotic cells at 0.625 uM incubated for 24 hrs by Annexin V and dead cell assay kit (reference value: 4.45 %); format: functional
[24] = system: Bel-7402; experiment: Induction of apoptosis in human Bel-7402 cells assessed as viable cells at 2.5 uM incubated for 24 hrs by Annexin V and dead cell assay kit (reference value: 91.00%); format: functional; settings: read-out: Activity
[25] = Toxicity in ICR mouse assessed as change in lymphocyte count at 100 mg/kg, ip qd (reference value: 3.0 10^9/L); format: organism-based; settings: in vivo
[26] = system: Bel-7402; experiment: Cytotoxicity against human Bel-7402 cells assessed as increase LDH release at 2.5 to 5 uM by LDH assay; format: functional, cell-based; settings: dose 2.5-5 µM, time 24-48 hrs, TDE = time-dependent effect
[27] = Biodistribution in kidney of mouse bearing tumor measured after 24 hr by ICG dye based fluorescence imaging; format: ADME, organism-based; settings: in vivo
[28] = system: HeLa; experiment: Cytotoxicity against human HeLa cells assessed as reduction in cell viability incubated for 72 hrs by MTT assay; format: functional, cell-based
[29] = system: Bel-7402; experiment: Induction of ERK degradation in human Bel-7402 cells at 2.5 uM incubated for 24 hrs in presence of Z-vad-fmk by Western blot analysis; format: cell-based
[30] = Acute toxicity in ICR mouse assessed as change in amount of food intake at 100 to 500 mg/kg, ip; format: organism-based; settings: in vivo, dose 100-500 mg/kg
[31] = Drug elimination in mouse bearing tumor measured after 24 hr by ICG dye based fluorescence imaging; format: ADME; settings: in vivo
[32] = system: Bel-7402; experiment: Cytotoxicity against human Bel-7402 cells assessed as inhibition rate at 5 uM incubated for 72 hrs by MTT assay relative to control; format: functional; parameters: scale not given: the % may be the effect or the level left
[33] = system: Bel-7402; experiment: Induction of apoptosis in human Bel-7402 cells assessed as early apoptotic cells at 2.5 uM incubated for 24 hrs by Annexin V and Dead cell kit assay (reference value: 3.7 %); format: functional
[34] = system: Bel-7402; experiment: Antitumor activity against human Bel-7402 cells xenografted in BALB/c nude mouse assessed as tumor growth inhibition at 20 mg/kg, ip bid for 14 days measured every 2 days relative to control; format: functional; settings: Bel-7402, 336 h, time 14 day, read-out: TGI
[35] = system: Bel-7402; experiment: Induction of caspase dependent apoptosis in human Bel-7402 cells assessed as reduction in cell proliferation inhibition upto 10 uM incubated for 24 hrs in presence of Z-vad-fmk by MTT assay; format: functional, cell-based
[36] = system: Bel-7402; experiment: Antitumor activity against human Bel-7402 cells xenografted in BALB/c nude mouse assessed as tumor growth inhibition at 10 mg/kg, ip bid measured every 2 days for 14 days relative to control; format: functional; settings: Bel-7402, 336 h, time 14 day, read-out: TGI
[37] = system: Bel-7402; experiment: Induction of AKT degradation in human Bel-7402 cells at 2.5 uM incubated for 24 hrs in presence of chloroquine by Western blot analysis; format: cell-based
[38] = Toxicity in ICR mouse assessed as change in neutrophile granulocyte level at 100 mg/kg, ip qd (reference value: 21.6 %); format: organism-based; settings: in vivo

CC[C@H](C)/C=C(C)/C=C/C1=CC2=C(Cl)C(=O)[C@](C)(O)C(=O)C2=CN1Cc1ccc(OC(F)(F)F)cc1
IC50 [1]: 2760 nM | Activity [2]: Dde | IC50 at 72 h [3]: 2820 nM | Activity [4]: 0.75% | Activity [5]: Non-Toxic | Activity [6]: Non-Toxic | Activity [7]: 5.75% | Activity [8]: 141 g/L | Activity [9]: 16.55% | Activity [10]: 37.9% | Activity [11]: Tde | AUC(0-t) [12]: 29700 ng·h/mL | Drug uptake [13]: Active | Activity [14]: Active | Activity [15]: 6.7 fL | Activity [16]: Non-Toxic | Activity [17]: Non-Toxic | Activity [18]: Active | Activity [19]: Non-Toxic | Activity [20]: 7.75% | inhibition in vivo at 20 mg/kg [21]: 18.3% | Activity [22]: 5.1% | Activity [23]: 3.1% | viability at 2.5 µM [24]: 44.9% | Activity [25]: 1.7 10^9/L | Activity [26]: Tde | Activity [27]: Active | IC50 [28]: 2780 nM | Activity [29]: Active | Activity [30]: Non-Toxic | Drug excretion [31]: Metabolite_Detected | Activity [32]: 90.13% | Activity [33]: 25.8% | inhibition in vivo at 20 mg/kg [34]: 52.5% | Activity [35]: Active | inhibition in vivo at 10 mg/kg [36]: 34.6% | Activity [37]: Active | Activity [38]: 41.6%
